pIC50: −log10 of the molar value.
Columns and labels:
prostate line LNCap = assay: In vitro cell culture growth assay (MTS), LNCap; type: cell-based, human; details: LNCap cells, three days after drug treatment;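 note: viable cell density read by absorbance at 490 nm, growth expressed as percent of vehicle-treated cells on the same plate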
breast line MDA468 = assay: In vitro cell culture growth assay (MTS), MDA468; type: cell-based, human; details: MDA468 cells, three days after drug treatment
Procedure, shortened: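 Growth measured as percent of same-plate vehicle control by MTS metabolic dye conversion (A490). Breast MDA468 and prostate LNCap cells, plated a day ahead, were exposed to compounds for 3 days.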

PI3K = PI3K (Homo sapiens, UniProt P42336); assay: Fluorescence polarization assay for PI3K; type: biochemical; details: PI3Kα; read-out: PI3Kα IC50;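 note: PI3K kinase reaction on PIP2 with ATP, 30-60 min, product sensed by GST-GRP with red probe in fluorescence polarization (mP), controls without enzyme and at zero time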
Chain of PI3K (P42336 whole entry): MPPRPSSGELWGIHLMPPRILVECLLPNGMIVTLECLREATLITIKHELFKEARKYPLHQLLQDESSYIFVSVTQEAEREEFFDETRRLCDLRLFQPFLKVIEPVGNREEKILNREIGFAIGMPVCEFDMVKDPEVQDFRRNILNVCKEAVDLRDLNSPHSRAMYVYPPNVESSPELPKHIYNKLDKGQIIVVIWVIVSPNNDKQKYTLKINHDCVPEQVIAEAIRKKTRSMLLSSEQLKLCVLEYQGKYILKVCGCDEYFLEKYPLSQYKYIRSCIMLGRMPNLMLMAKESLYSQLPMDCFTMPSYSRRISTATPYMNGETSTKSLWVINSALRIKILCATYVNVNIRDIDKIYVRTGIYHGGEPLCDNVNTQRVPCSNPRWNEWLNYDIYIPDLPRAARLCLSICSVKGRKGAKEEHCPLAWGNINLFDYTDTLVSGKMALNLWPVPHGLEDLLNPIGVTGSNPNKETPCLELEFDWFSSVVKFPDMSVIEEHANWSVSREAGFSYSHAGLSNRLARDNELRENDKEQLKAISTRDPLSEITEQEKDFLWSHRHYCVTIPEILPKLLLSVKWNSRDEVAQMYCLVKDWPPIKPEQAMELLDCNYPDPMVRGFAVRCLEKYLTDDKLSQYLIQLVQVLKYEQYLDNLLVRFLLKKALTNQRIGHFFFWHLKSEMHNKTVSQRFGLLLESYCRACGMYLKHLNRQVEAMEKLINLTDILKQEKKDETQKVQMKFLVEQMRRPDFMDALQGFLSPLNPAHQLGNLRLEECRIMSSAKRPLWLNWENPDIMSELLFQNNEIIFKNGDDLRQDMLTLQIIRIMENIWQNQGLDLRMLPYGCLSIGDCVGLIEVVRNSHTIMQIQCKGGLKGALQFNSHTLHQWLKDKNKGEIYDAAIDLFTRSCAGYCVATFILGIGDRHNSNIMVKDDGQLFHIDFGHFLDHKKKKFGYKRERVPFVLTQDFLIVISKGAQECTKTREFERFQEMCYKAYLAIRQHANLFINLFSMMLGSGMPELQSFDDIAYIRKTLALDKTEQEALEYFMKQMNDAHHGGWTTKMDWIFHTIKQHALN
Chain of PI3K (P27986 whole entry partner): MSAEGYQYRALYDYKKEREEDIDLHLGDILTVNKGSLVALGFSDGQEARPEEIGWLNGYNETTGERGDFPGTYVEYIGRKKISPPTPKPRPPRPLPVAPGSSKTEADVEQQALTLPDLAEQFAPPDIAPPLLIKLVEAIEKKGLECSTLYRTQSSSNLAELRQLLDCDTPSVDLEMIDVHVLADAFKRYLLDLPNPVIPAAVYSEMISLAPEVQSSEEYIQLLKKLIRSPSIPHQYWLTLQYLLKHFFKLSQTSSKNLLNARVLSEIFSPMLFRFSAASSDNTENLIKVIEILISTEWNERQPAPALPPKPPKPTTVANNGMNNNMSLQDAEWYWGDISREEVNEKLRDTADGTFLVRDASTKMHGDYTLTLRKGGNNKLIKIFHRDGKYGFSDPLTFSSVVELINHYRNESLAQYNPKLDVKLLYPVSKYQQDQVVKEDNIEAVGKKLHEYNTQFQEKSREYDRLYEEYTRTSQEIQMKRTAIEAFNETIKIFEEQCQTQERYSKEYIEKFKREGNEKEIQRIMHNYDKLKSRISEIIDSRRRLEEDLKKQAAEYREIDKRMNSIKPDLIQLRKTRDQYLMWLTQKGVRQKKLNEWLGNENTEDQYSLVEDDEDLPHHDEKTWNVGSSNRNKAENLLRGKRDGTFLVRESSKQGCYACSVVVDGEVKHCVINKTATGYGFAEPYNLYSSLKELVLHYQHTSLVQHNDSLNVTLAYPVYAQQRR

Row | SMILES | pIC50 (prostate line LNCap; Homo sapiens, LNCaP, 72 h) | pIC50 (PI3K) | pIC50 (prostate line LNCap) | pIC50 (breast line MDA468; Homo sapiens, 72 h) | pIC50 (breast line MDA468)
1 | CCOC(=O)N1CCC(n2ncc3c(N4CCOC[C@H]4C)nc(-c4ccc(NC(=O)NC)cc4)nc32)CC1 [Compound 888, ethyl 4-(6-{4-[(methylcarbamoyl)amino]phenyl}-4-[(3R)-3-methylmorpholin-4-yl]-1H-pyrazolo[3,4-d]pyrimidin-1-yl)piperidine-1-carboxylate] | 8.00 | 5.70 | – | 6.66 | –
2 | O=C(NCCO)Nc1ccc(-c2nc(N3CCOCC3)c3cnn(C4CCN(CCCCO)CC4)c3n2)cc1 [Compound 746, 1-(4-{1-[1-(4-hydroxybutyl)piperidin-4-yl]-4-morpholin-4-yl-1H-pyrazolo[3,4-d]pyrimidin-6-yl}phenyl)-3-(2-hydroxyethyl)urea] | 4.54 | 6.43 | – | 4.52 | –
3 | CN(C)S(=O)(=O)c1cccc(-c2nc(N3CCOCC3)c3cnn(C4CCN(Cc5ccccc5)CC4)c3n2)c1 [Example 69] | 5.51 | 4.98 | – | 5.40 | –
4 | O=C1Cc2cc(-c3nc(N4CCOCC4)c4cnn(-c5ccccc5)c4n3)ccc2N1 [Compound 433, 5-(4-morpholin-4-yl-1-phenyl-1H-pyrazolo[3,4-d]pyrimidin-6-yl)-1,3-dihydro-2H-indol-2-one] | 4.22 | 5.99 | – | 4.22 | –
5 | c1cc(CN2CCC(n3ncc4c(N5CCOCC5)nc(-c5ccc6[nH]ccc6c5)nc43)CC2)ccn1 [Compound 179] | 6.22 | 6.19 | – | 5.74 | –
6 | NCc1ccc(-c2nc(N3CCOCC3)c3cnn(-c4ccccc4)c3n2)cc1 [Compound 146] | 5.77 | 6.34 | – | 5.40 | –
7 | O=C(c1ncccc1O)N1CCC(n2ncc3c(N4CCOCC4)nc(-c4ccc5[nH]ccc5c4)nc32)CC1 [Example 198, 2-({4-[6-(1H-indol-5-yl)-4-morpholin-4-yl-1H-pyrazolo[3,4-d]pyrimidin-1-yl]piperidin-1-yl}carbonyl)pyridin-3-ol] | 6.15 | 5.78 | – | 5.40 | –
8 | NC(=O)c1ccc(-c2nc(N3CCOCC3)c3cnn(-c4ccccc4)c3n2)cc1 [Compound 100] | 4.22 | 6.44 | – | 4.22 | –
9 | CONC(=O)Nc1ccc(-c2nc(N3CCOCC3)c3cnn(-c4ccccc4)c3n2)cc1 [Compound 295, 1-methoxy-3-[4-(4-morpholin-4-yl-1-phenyl-1H-pyrazolo[3,4-d]pyrimidin-6-yl)phenyl]urea] | 5.74 | 6.39 | – | 5.30 | –
10 | O=C(NCC1CC1)Nc1ccc(-c2nc(N3CCOCC3)c3cnn(C4CCN(Cc5ccccc5)CC4)c3n2)cc1 [Example 262, 1-{4-[1-(1-benzylpiperidin-4-yl)-4-morpholin-4-yl-1H-pyrazolo[3,4-d]pyrimidin-6-yl]phenyl}-3-(cyclopropylmethyl)urea] | 6.15 | 6.41 | – | 5.52 | –
11 | c1ccc(-n2ncc3c(N4CCOCC4)nc(-c4cc5ccccc5s4)nc32)cc1 [Compound 113] | 4.66 | 5.66 | – | 4.64 | –
12 | c1ccc(-n2ncc3c(N4CCOCC4)nc(-c4ccc[nH]4)nc32)cc1 [Compound 6] | 5.62 | 5.87 | – | 4.96 | –
13 | CNC(=O)Nc1ccc(-c2nc(N3CCOCC3)c3cnn(C4CCN(CC#N)CC4)c3n2)cc1 [Compound 793, 1-(4-{1-[1-(cyanomethyl)piperidin-4-yl]-4-morpholin-4-yl-1H-pyrazolo[3,4-d]pyrimidin-6-yl}phenyl)-3-methylurea] | 6.00 | 7.12 | – | 5.92 | –
14 | O=C(O)CCC(=O)Nc1ccc(-c2nc(N3CCOCC3)c3cnn(C4CCN(Cc5ccccc5)CC4)c3n2)cc1 [Compound 81] | 4.22 | 5.43 | – | 4.35 | –
15 | COC(=O)Nc1ccc(-c2nc(N3CCOCC3)c3cn[nH]c3n2)cc1 [Compound 279, methyl [4-(4-morpholin-4-yl-1H-pyrazolo[3,4-d]pyrimidin-6-yl)phenyl]carbamate] | 5.52 | 6.21 | – | 4.92 | –
16 | COC(=O)Nc1ccc(-c2nc(N3CCOCC3)c3cnn(C4CCN(C(=O)c5ccccn5)CC4)c3n2)cc1 [Example 441, methyl (4-{4-morpholin-4-yl-1-[1-(pyridin-2-ylcarbonyl)piperidin-4-yl]-1H-pyrazolo[3,4-d]pyrimidin-6-yl}phenyl)carbamate] | 6.70 | 5.72 | – | 6.22 | –
17 | O=C(CCN1CCCCC1)Nc1ccc(-c2nc(N3CCOCC3)c3cnn(-c4ccccc4)c3n2)cc1 [Compound 137] | 5.55 | 7.00 | – | 5.92 | –
18 | CNC(=O)Nc1ccc(-c2nc(N3CCOCC3)c3cnn(C4CCN(C(=O)N(C)C)CC4)c3n2)cc1 [Compound 717, N,N-dimethyl-4-(6-{4-[(methylcarbamoyl)amino]phenyl}-4-morpholin-4-yl-1H-pyrazolo[3,4-d]pyrimidin-1-yl)piperidine-1-carboxamide] | – | 6.68 | 6.70 | – | 6.32
19 | CCNC(=O)Nc1cc(F)c(-c2nc(N3CCOCC3)c3cnn(C4CCN(C(=O)c5cccnc5)CC4)c3n2)cc1F [Example 466, 1-(2,5-difluoro-4-{4-morpholin-4-yl-1-[1-(pyridin-3-ylcarbonyl)piperidin-4-yl]-1H-pyrazolo[3,4-d]pyrimidin-6-yl}phenyl)-3-ethylurea] | 5.98 | 5.51 | – | 5.48 | –
20 | CNC(=O)Nc1ccc(-c2nc(N3CCOCC3)c3cnn(C4CCN(C(=O)C(C)C)CC4)c3n2)cc1 [Example 475, 1-{4-[1-(1-isobutyrylpiperidin-4-yl)-4-morpholin-4-yl-1H-pyrazolo[3,4-d]pyrimidin-6-yl]phenyl}-3-methylurea] | 6.82 | 6.83 | – | 6.52 | –
21 | CNC(=O)Nc1ccc(-c2nc(N3CCOCC3)c3cnn(C4CCN(C(=O)c5cccc(C(C)=O)c5)CC4)c3n2)cc1 [Example 423, 1-(4-{1-[1-(3-acetylbenzoyl)piperidin-4-yl]-4-morpholin-4-yl-1H-pyrazolo[3,4-d]pyrimidin-6-yl}phenyl)-3-methylurea] | 6.96 | 7.08 | – | 6.70 | –

Compounds with a higher pIC50 (PI3K), results first:

Row | pIC50 (prostate line LNCap; Homo sapiens, LNCaP, 72 h) | pIC50 (PI3K) | pIC50 (prostate line LNCap) | SMILES | pIC50 (breast line MDA468; Homo sapiens, 72 h) | pIC50 (breast line MDA468)
22 | 6.66 | 7.48 | – | COc1ccc(C(=O)N2CCC(n3ncc4c(N5CCOCC5)nc(-c5cccc(O)c5)nc43)CC2)cc1 [Compound 28, 3-{1-[1-(4-methoxybenzoyl)piperidin-4-yl]-4-morpholin-4-yl-1H-pyrazolo[3,4-d]pyrimidin-6-yl}phenol] | 5.96 | –
23 | 5.24 | 7.35 | – | Oc1cccc(-c2nc(N3CCOCC3)c3cnn(CCN4CCNCC4)c3n2)c1 [Compound 166] | 4.82 | –
24 | 7.42 | 7.46 | – | CNC(=O)Nc1ccc(-c2nc(N3CCOCC3)c3cnn(C4CCN(Cc5ccccc5Cl)CC4)c3n2)cc1 [Example 396, 1-(4-{1-[1-(2-chlorobenzyl)piperidin-4-yl]-4-morpholin-4-yl-1H-pyrazolo[3,4-d]pyrimidin-6-yl}phenyl)-3-methylurea] | 6.70 | –
25 | – | 8.10 | > 7.57 | O=C(Nc1ccc(-c2nc(N3CCOCC3)c3cnn(C4CCN(Cc5cccnc5)CC4)c3n2)cc1)Nc1cccs1 [Compound 648, 1-(4-{4-morpholin-4-yl-1-[1-(pyridin-3-ylmethyl)piperidin-4-yl]-1H-pyrazolo[3,4-d]pyrimidin-6-yl}phenyl)-3-(2-thienyl)urea] | – | 7.22
26 | 7.13 | 7.26 | – | Oc1cccc(-c2nc(N3CCOCC3)c3cnn(C4CCN(Cc5ccco5)CC4)c3n2)c1 [Compound 15] | 6.22 | –
27 | 7.15 | 7.37 | – | CNC(=O)Nc1ccc(-c2nc(N3CCOCC3)c3cnn(C4CCN(Cc5cccc(OC)c5)CC4)c3n2)cc1 [Example 400, 1-(4-{1-[1-(3-methoxybenzyl)piperidin-4-yl]-4-morpholin-4-yl-1H-pyrazolo[3,4-d]pyrimidin-6-yl}phenyl)-3-methylurea] | 6.30 | –
28 | 6.92 | 7.30 | – | CC(C)C(=O)N1CCC(n2ncc3c(N4CCOCC4)nc(-c4ccc(NC(=O)Nc5cccnc5)cc4)nc32)CC1 [Compound 828, 1-{4-[1-(1-isobutyrylpiperidin-4-yl)-4-morpholin-4-yl-1H-pyrazolo[3,4-d]pyrimidin-6-yl]phenyl}-3-pyridin-3-ylurea] | 6.48 | –
29 | > 7.57 | 7.47 | – | CCOC(=O)N1CCC(n2ncc3c(N4CCOCC4)nc(-c4ccc(NC(=O)Nc5ccccc5)cc4)nc32)CC1 [Compound 814, ethyl 4-(6-{4-[(anilinocarbonyl)amino]phenyl}-4-morpholin-4-yl-1H-pyrazolo[3,4-d]pyrimidin-1-yl)piperidine-1-carboxylate] | > 7.57 | –
30 | 6.98 | 7.25 | – | CC(C)(C)OC(=O)N1CCC(n2ncc3c(N4CCOCC4)nc(-c4ccc(NC(=O)Nc5cccnc5)cc4)nc32)CC1 [Compound 770, tert-butyl 4-(4-morpholin-4-yl-6-{4-[(pyridin-3-ylcarbamoyl)amino]phenyl}-1H-pyrazolo[3,4-d]pyrimidin-1-yl)piperidine-1-carboxylate] | 6.59 | –
31 | 7.15 | 7.39 | – | O=C(Nc1ccccc1)Nc1ccc(-c2nc(N3CCOCC3)c3cnn(C4CCN(Cc5cccnc5)CC4)c3n2)cc1F [Compound 598, 1-(2-fluoro-4-{4-morpholin-4-yl-1-[1-(pyridin-3-ylmethyl)piperidin-4-yl]-1H-pyrazolo[3,4-d]pyrimidin-6-yl}phenyl)-3-phenylurea] | 6.44 | –

— patent US20080234262A1 (Wyeth, priority 2007, published 2008)
